According to US20110009345A1 (priority 2009, published 2011):
No end group written: not given here.

System: adjuvant-induced arthritis
Details: male Sprague-Dawley rats, by gavage during 10 days

In the case of “YGSRS [peptide, tyrosine-glycine-serine-arginine-serine]”, the “effect on body weight” value is reported as “without inducing weight loss”.
